Measurements reported in US9695155B2, “Herbicidal substituted pyrimidinyloxy benzene compounds” (E. I. DU PONT DE NEMOURS AND COMPANY, priority 2013, dated 2017).

Columns and labels:
Experiment in all cases: Test E preemergence
corn = type: in vivo, Zea mays; settings: for Corn plant response rating: scale 0 to 100 (0 no effect, 100 complete control); for Plant response rating, Corn: scale 0 to 100, 0 no effect, 100 complete control
Summary of the method: (§1)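 Compound in a non-phytotoxic solvent mixture with surfactant was applied preemergence to seeds in silt loam soil, or postemergence to plants 2 to 18 cm tall grown in peat-based potting medium. Plants were kept in a greenhouse for 14 to 21 days, then rated visually against untreated controls on a 0 (no effect) to 100 (complete control) scale.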

soybean = type: in vivo, Glycine max; settings: for Soybean plant response rating: scale 0 to 100 (0 no effect, 100 complete control); for Plant response rating, Soybean: scale 0 to 100, 0 no effect, 100 complete control
Summary of the method: as §1

lambsquarters = type: in vivo, Chenopodium album; settings: for Lambsquarters plant response rating: scale 0 to 100 (0 no effect, 100 complete control); for Plant response rating, Lambsquarters: scale 0 to 100, 0 no effect, 100 complete control
Source text: (§2) Seeds of plant species selected from corn (Zea mays), soybean (Glycine max), velvetleaf (Abutilon theophrasti), lambsquarters (Chenopodium album), wild poinsettia (Euphorbia heterophylla), palmer pigweed (Amaranthus palmeri), waterhemp (common waterhemp, Amaranthus rudis), surinam grass (Brachiaria decumbens), large (Lg) crabgrass (Digitaria sanguinalis), Brazilian crabgrass (Digitaria horizontalis), fall panicum (Panicum dichotomiflorum), giant foxtail (Setaria faberii), green foxtail (Setaria viridis), goosegrass (Eleusine indica), johnsongrass (Sorghum halepense), ragweed (common ragweed, Ambrosia elatior), barnyardgrass (Echinochloa crus-galli), sandbur (southern sandbur, Cenchrus echinatus), arrowleaf sida (Sida rhombifolia), Italian ryegrass (Lolium multiflorum), dayflower (Virginia (VA) dayflower, Commelina virginica), field bindweed (Convolvulus arvensis), morningglory (Ipomoea coccinea), nightshade (eastern black nightshade, Solanum ptycanthum), kochia (Kochia scoparia), yellow nutsedge (Cyperus esculentus), cocklebur (common cocklebur, Xanthium strumarium), smartweed (ladysthumb smartweed, and hairy beggarticks (Bidens pilosa), were planted into a silt loam soil and treated preemergence with test chemicals formulated in a non-phytotoxic solvent mixture which included a surfactant.
(§3) At the same time, plants from these crop and weed species and also horseweed (Canada horseweed, Conyza canadensis), waterhemp_RES1, (ALS & Triazine resistant common waterhemp, Amaranthus rudis), and waterhemp_RES2, (ALS & HPPD resistant common waterhemp, Amaranthus rudis) were planted in pots containing Redi-Earth® planting medium (Scotts Company, 14111 Scottslawn Road, Marysville, Ohio 43041) comprising spaghnum peat moss, vermiculite, wetting agent and starter nutrients were treated with postemergence applications of test chemicals formulated in the same manner. Plants ranged in height from 2 to 18 cm for postemergence treatments (1- to 4-leaf stage). Treated plants and controls were maintained in a greenhouse for 14 to 21 days, after which time all species were compared to controls and visually evaluated. Plant response ratings, summarized in Table E, are based on a scale of 0 to 100 where 0 is no effect and 100 is complete control. A dash (-) response means no test result.

palmer pigweed = type: in vivo, Amaranthus palmeri; settings: for Pigweed, Palmer plant response rating: scale 0 to 100 (0 no effect, 100 complete control); for Plant response rating, Pigweed, Palmer: scale 0 to 100, 0 no effect, 100 complete control
Source text: as §2, §3

waterhemp = type: in vivo, Amaranthus rudis; settings: for Waterhemp plant response rating: scale 0 to 100 (0 no effect, 100 complete control); for Plant response rating, Waterhemp: scale 0 to 100, 0 no effect, 100 complete control
Source text: as §2, §3

surinam grass = type: in vivo, Brachiaria decumbens; settings: for Surinam Grass plant response rating: scale 0 to 100 (0 no effect, 100 complete control); for Plant response rating, Surinam Grass: scale 0 to 100, 0 no effect, 100 complete control
Summary of the method: as §1

fall panicum = type: in vivo, Panicum dichotomiflorum; settings: for Panicum, Fall plant response rating: scale 0 to 100 (0 no effect, 100 complete control); for Plant response rating, Panicum, Fall: scale 0 to 100, 0 no effect, 100 complete control
Source text: as §2, §3

giant foxtail = type: in vivo, Setaria faberii; settings: for Foxtail, Giant plant response rating: scale 0 to 100 (0 no effect, 100 complete control); for Plant response rating, Foxtail, Giant: scale 0 to 100, 0 no effect, 100 complete control
Source text: as §2, §3

goosegrass = type: in vivo, Eleusine indica; settings: for Goosegrass plant response rating: scale 0 to 100 (0 no effect, 100 complete control); for Plant response rating, Goosegrass: scale 0 to 100, 0 no effect, 100 complete control
Summary of the method: as §1

sandbur = type: in vivo, Cenchrus echinatus; settings: for Sandbur plant response rating: scale 0 to 100 (0 no effect, 100 complete control); for Plant response rating, Sandbur: scale 0 to 100, 0 no effect, 100 complete control
Summary of the method: as §1

Italian ryegrass = type: in vivo, Lolium multiflorum; settings: for Ryegrass, Italian plant response rating: scale 0 to 100 (0 no effect, 100 complete control); for Plant response rating, Ryegrass, Italian: scale 0 to 100, 0 no effect, 100 complete control
Source text: as §2, §3

morningglory = type: in vivo, Ipomoea coccinea; settings: for Morningglory plant response rating: scale 0 to 100 (0 no effect, 100 complete control); for Plant response rating, Morningglory: scale 0 to 100, 0 no effect, 100 complete control
Summary of the method: as §1

SMILES: N#Cc1cccc(Oc2ncc(F)cn2)c1-n1cc(Cl)cn1 [Compound 73]
- Corn plant response rating (corn; 16 g ai/ha): 0
- Corn plant response rating (corn; 31 g ai/ha): 0
- Corn plant response rating (corn; 62 g ai/ha): 0
- Plant response rating, Corn (corn; 125 g ai/ha): 0
- Plant response rating, Corn (corn; 250 g ai/ha): 5
- Soybean plant response rating (soybean; 16 g ai/ha): 15
- Soybean plant response rating (soybean; 31 g ai/ha): 25
- Soybean plant response rating (soybean; 62 g ai/ha): 25
- Plant response rating, Soybean (soybean; 125 g ai/ha): 70
- Plant response rating, Soybean (soybean; 250 g ai/ha): 80
- Lambsquarters plant response rating (lambsquarters; 16 g ai/ha): 10
- Lambsquarters plant response rating (lambsquarters; 31 g ai/ha): 65
- Lambsquarters plant response rating (lambsquarters; 62 g ai/ha): 98
- Plant response rating, Lambsquarters (lambsquarters; 125 g ai/ha): 100
- Plant response rating, Lambsquarters (lambsquarters; 250 g ai/ha): 100
- Pigweed, Palmer plant response rating (palmer pigweed; 16 g ai/ha): 0
- Pigweed, Palmer plant response rating (palmer pigweed; 31 g ai/ha): 75
- Pigweed, Palmer plant response rating (palmer pigweed; 62 g ai/ha): 100
- Plant response rating, Pigweed, Palmer (palmer pigweed; 125 g ai/ha): 100
- Plant response rating, Pigweed, Palmer (palmer pigweed; 250 g ai/ha): 100
- Waterhemp plant response rating (waterhemp; 16 g ai/ha): 65
- Waterhemp plant response rating (waterhemp; 31 g ai/ha): 100
- Waterhemp plant response rating (waterhemp; 62 g ai/ha): 100
- Plant response rating, Waterhemp (waterhemp; 125 g ai/ha): 100
- Plant response rating, Waterhemp (waterhemp; 250 g ai/ha): 100
- Surinam Grass plant response rating (surinam grass; 16 g ai/ha): 0
- Surinam Grass plant response rating (surinam grass; 31 g ai/ha): 0
- Surinam Grass plant response rating (surinam grass; 62 g ai/ha): 5
- Plant response rating, Surinam Grass (surinam grass; 125 g ai/ha): 20
- Plant response rating, Surinam Grass (surinam grass; 250 g ai/ha): 35
- Panicum, Fall plant response rating (fall panicum; 16 g ai/ha): 0
- Panicum, Fall plant response rating (fall panicum; 31 g ai/ha): 40
- Panicum, Fall plant response rating (fall panicum; 62 g ai/ha): 98
- Plant response rating, Panicum, Fall (fall panicum; 125 g ai/ha): 98
- Plant response rating, Panicum, Fall (fall panicum; 250 g ai/ha): 100
- Foxtail, Giant plant response rating (giant foxtail; 16 g ai/ha): 0
- Foxtail, Giant plant response rating (giant foxtail; 31 g ai/ha): 20
- Foxtail, Giant plant response rating (giant foxtail; 62 g ai/ha): 50
- Plant response rating, Foxtail, Giant (giant foxtail; 125 g ai/ha): 95
- Plant response rating, Foxtail, Giant (giant foxtail; 250 g ai/ha): 100
- Goosegrass plant response rating (goosegrass; 16 g ai/ha): 0
- Goosegrass plant response rating (goosegrass; 31 g ai/ha): 20
- Goosegrass plant response rating (goosegrass; 62 g ai/ha): 70
- Plant response rating, Goosegrass (goosegrass; 125 g ai/ha): 98
- Plant response rating, Goosegrass (goosegrass; 250 g ai/ha): 100
- Sandbur plant response rating (sandbur; 16 g ai/ha): 10
- Sandbur plant response rating (sandbur; 31 g ai/ha): 20
- Sandbur plant response rating (sandbur; 62 g ai/ha): 20
- Plant response rating, Sandbur (sandbur; 125 g ai/ha): 30
- Plant response rating, Sandbur (sandbur; 250 g ai/ha): 35
- Ryegrass, Italian plant response rating (Italian ryegrass; 16 g ai/ha): 0
- Ryegrass, Italian plant response rating (Italian ryegrass; 31 g ai/ha): 20
- Ryegrass, Italian plant response rating (Italian ryegrass; 62 g ai/ha): 35
- Plant response rating, Ryegrass, Italian (Italian ryegrass; 125 g ai/ha): 35
- Plant response rating, Ryegrass, Italian (Italian ryegrass; 250 g ai/ha): 65
- Morningglory plant response rating (morningglory; 16 g ai/ha): 0
- Morningglory plant response rating (morningglory; 31 g ai/ha): 0
- Morningglory plant response rating (morningglory; 62 g ai/ha): 10
- Plant response rating, Morningglory (morningglory; 125 g ai/ha): 30
- Plant response rating, Morningglory (morningglory; 250 g ai/ha): 60

SMILES: N#Cc1cnn(-c2c(C#N)cccc2Oc2ncc(F)cn2)c1 [Compound 111]
- Corn plant response rating (corn; 16 g ai/ha): 0
- Corn plant response rating (corn; 31 g ai/ha): 0
- Corn plant response rating (corn; 62 g ai/ha): 0
- Plant response rating, Corn (corn; 125 g ai/ha): 15
- Soybean plant response rating (soybean; 16 g ai/ha): 0
- Soybean plant response rating (soybean; 31 g ai/ha): 20
- Soybean plant response rating (soybean; 62 g ai/ha): 40
- Plant response rating, Soybean (soybean; 125 g ai/ha): 70
- Lambsquarters plant response rating (lambsquarters; 16 g ai/ha): 50
- Lambsquarters plant response rating (lambsquarters; 31 g ai/ha): 80
- Lambsquarters plant response rating (lambsquarters; 62 g ai/ha): 98
- Plant response rating, Lambsquarters (lambsquarters; 125 g ai/ha): 100
- Pigweed, Palmer plant response rating (palmer pigweed; 16 g ai/ha): 10
- Pigweed, Palmer plant response rating (palmer pigweed; 31 g ai/ha): 20
- Pigweed, Palmer plant response rating (palmer pigweed; 62 g ai/ha): 100
- Plant response rating, Pigweed, Palmer (palmer pigweed; 125 g ai/ha): 100
- Waterhemp plant response rating (waterhemp; 16 g ai/ha): 0
- Waterhemp plant response rating (waterhemp; 31 g ai/ha): 65
- Waterhemp plant response rating (waterhemp; 62 g ai/ha): 80
- Plant response rating, Waterhemp (waterhemp; 125 g ai/ha): 100
- Surinam Grass plant response rating (surinam grass; 16 g ai/ha): 0
- Surinam Grass plant response rating (surinam grass; 31 g ai/ha): 0
- Surinam Grass plant response rating (surinam grass; 62 g ai/ha): 0
- Plant response rating, Surinam Grass (surinam grass; 125 g ai/ha): 25
- Panicum, Fall plant response rating (fall panicum; 16 g ai/ha): 0
- Panicum, Fall plant response rating (fall panicum; 31 g ai/ha): 5
- Panicum, Fall plant response rating (fall panicum; 62 g ai/ha): 80
- Plant response rating, Panicum, Fall (fall panicum; 125 g ai/ha): 100
- Foxtail, Giant plant response rating (giant foxtail; 16 g ai/ha): 0
- Foxtail, Giant plant response rating (giant foxtail; 31 g ai/ha): 0
- Foxtail, Giant plant response rating (giant foxtail; 62 g ai/ha): 70
- Plant response rating, Foxtail, Giant (giant foxtail; 125 g ai/ha): 100
- Goosegrass plant response rating (goosegrass; 16 g ai/ha): 0
- Goosegrass plant response rating (goosegrass; 31 g ai/ha): 5
- Goosegrass plant response rating (goosegrass; 62 g ai/ha): 40
- Plant response rating, Goosegrass (goosegrass; 125 g ai/ha): 65
- Sandbur plant response rating (sandbur; 16 g ai/ha): 0
- Sandbur plant response rating (sandbur; 31 g ai/ha): 0
- Sandbur plant response rating (sandbur; 62 g ai/ha): 0
- Plant response rating, Sandbur (sandbur; 125 g ai/ha): 0
- Ryegrass, Italian plant response rating (Italian ryegrass; 16 g ai/ha): 0
- Ryegrass, Italian plant response rating (Italian ryegrass; 31 g ai/ha): 0
- Ryegrass, Italian plant response rating (Italian ryegrass; 62 g ai/ha): 0
- Plant response rating, Ryegrass, Italian (Italian ryegrass; 125 g ai/ha): 20
- Morningglory plant response rating (morningglory; 16 g ai/ha): 20
- Morningglory plant response rating (morningglory; 31 g ai/ha): 35
- Morningglory plant response rating (morningglory; 62 g ai/ha): 75
- Plant response rating, Morningglory (morningglory; 125 g ai/ha): 75
